Data from patent US20240041976A1, “COMPOSITION AND USE” (priority 2020, published 2024).
No end group written: not given here.

Key:
Test in all cases: microbe, parasite or virus in culture
S. haemolyticus 4073 = settings: for MIC of the component in combination: 4073
Experimental: (§1) Growth inhibition assays were performed in 96-well microtiter plates as described previously (Chi and Holo, 2018, supra). Briefly, 135 μl of TSB were dispensed in each well of a microtiter plate (according to the number of bacterial strains tested) except in the wells of the first row. The antimicrobials were diluted in TSB to working concentrations in a final volume of 285 μl and dispensed in the wells of the first row. The working concentrations were 100 μg/μl for garvicin KS, 10 μg/μl for micrococcin P1 and 1 mg/ml for penicillin G. From the first row, 150 μl of the antimicrobials were then serially diluted (two-fold dilutions) in a sequential fashion until the last row of the plate. Finally, 15 μl of a fresh O/N culture of each strain were added in the appropriate wells to reach a final volume of 150 μl in each well. The plates were then incubated at 37° C. for 24 h. The growth inhibition was expressed as minimum inhibitory concentration (MIC50), which refers to the minimum concentration of the antimicrobial needed to reduce at least 50% of the microbial growth compared to the untreated control. The MIC50 was assessed by optical density readings at 600 nm (O.D.600).
(§2) Synergistic interactions between antimicrobials were determined using the fractional inhibition concentration (FIC). The FIC values were calculated as follows: the sum of the FIC =FICa+FICb+FICc, where the FICa means MIC of A in combination/MIC of A alone, FICb means MIC of B in combination/MIC of B, and FICc means MIC of C in combination/MIC of C alone. Effects were considered as synergistic if FIC was ≤0.5 for two components mixture and ≤0.75 for three components mixture.
(§3) Bacteriocins and antimicrobial assays. […] These bacteriocins were all solubilized in 0.1% (vol/vol) trifluoracetic acid (TFA; Sigma-Aldrich). […] Cell growth inhibition assays and antimicrobial synergy determination was performed in line with Example 1.
(§4) To investigate whether there was synergy between the three bacteriocins (K1-EJ, GarKS and MP1), a checkboard antimicrobial assay was performed. The selected strains were treated for 5, 24 and 48 h with a range of concentrations of K1-EJ, GarKS and MP1 alone or in different combinations.

S. haemolyticus 4068 = settings: for MIC of the component in combination: 4068
Experimental: as §1, §2, §3, §4

S. haemolyticus 4072 = settings: for MIC of the component in combination: 4072
Experimental: as §1, §2, §3, §4

S. haemolyticus 4070 = settings: for MIC of the component in combination: 4070
Experimental: as §1, §2, §3, §4

S. haemolyticus 4069 = settings: for MIC of the component in combination: 4069
Experimental: as §1, §2, §3, §4

S. haemolyticus 4071 = settings: for MIC of the component in combination: 4071
Experimental: as §1, §2, §3, §4

Sequence: MKFKFNPTGTIVKKLTQYEINWYKQQYGRYPWERPVA [Hybrid K1-EJ]
- MIC (S. haemolyticus 4073; 4073, 5 h): 0.78 µg/mL
- MIC (S. haemolyticus 4073; 4073, 24 h): >100 µg/mL
- MIC (S. haemolyticus 4073; 4073, 48 h): >100 µg/mL
- MIC of the component in combination (S. haemolyticus 4073; 5 h, K1-EJ + GarKS): 1.7 µg/mL
- MIC of the component in combination (S. haemolyticus 4073; 5 h, K1-EJ + GarKS + MP1): 0.33 µg/mL
- MIC of the component in combination (S. haemolyticus 4073; 5 h, K1-EJ + MP1): 0.2 µg/mL
- MIC of the component in combination (S. haemolyticus 4073; 24 h, K1-EJ + GarKS): 6.3 µg/mL
- MIC of the component in combination (S. haemolyticus 4073; 24 h, K1-EJ + GarKS + MP1): 0.78 µg/mL
- MIC of the component in combination (S. haemolyticus 4073; 24 h, K1-EJ + MP1): 0.36 µg/mL
- MIC of the component in combination (S. haemolyticus 4073; 48 h, K1-EJ + GarKS): 12 µg/mL
- MIC of the component in combination (S. haemolyticus 4073; 48 h, K1-EJ + GarKS + MP1): 1.6 µg/mL
- MIC of the component in combination (S. haemolyticus 4073; 48 h, K1-EJ + MP1): 0.85 µg/mL
- MIC (S. haemolyticus 4068; 4068, 5 h): 0.78 µg/mL
- MIC (S. haemolyticus 4068; 4068, 24 h): >100 µg/mL
- MIC (S. haemolyticus 4068; 4068, 48 h): >100 µg/mL
- MIC of the component in combination (S. haemolyticus 4068; 5 h, K1-EJ + GarKS): 0.83 µg/mL
- MIC of the component in combination (S. haemolyticus 4068; 5 h, K1-EJ + GarKS + MP1): 0.32 µg/mL
- MIC of the component in combination (S. haemolyticus 4068; 5 h, K1-EJ + MP1): 0.2 µg/mL
- MIC of the component in combination (S. haemolyticus 4068; 24 h, K1-EJ + GarKS): 3.1 µg/mL
- MIC of the component in combination (S. haemolyticus 4068; 24 h, K1-EJ + GarKS + MP1): 0.78 µg/mL
- MIC of the component in combination (S. haemolyticus 4068; 24 h, K1-EJ + MP1): 0.78 µg/mL
- MIC of the component in combination (S. haemolyticus 4068; 48 h, K1-EJ + GarKS): 6 µg/mL
- MIC of the component in combination (S. haemolyticus 4068; 48 h, K1-EJ + GarKS + MP1): 2.8 µg/mL
- MIC of the component in combination (S. haemolyticus 4068; 48 h, K1-EJ + MP1): 0.72 µg/mL
- MIC (S. haemolyticus 4072; 4072, 5 h): 0.78 µg/mL
- MIC (S. haemolyticus 4072; 4072, 24 h): >100 µg/mL
- MIC (S. haemolyticus 4072; 4072, 48 h): >100 µg/mL
- MIC of the component in combination (S. haemolyticus 4072; 5 h, K1-EJ + GarKS): 1.5 µg/mL
- MIC of the component in combination (S. haemolyticus 4072; 5 h, K1-EJ + GarKS + MP1): 0.68 µg/mL
- MIC of the component in combination (S. haemolyticus 4072; 5 h, K1-EJ + MP1): 0.36 µg/mL
- MIC of the component in combination (S. haemolyticus 4072; 24 h, K1-EJ + GarKS): 12 µg/mL
- MIC of the component in combination (S. haemolyticus 4072; 24 h, K1-EJ + GarKS + MP1): 1.6 µg/mL
- MIC of the component in combination (S. haemolyticus 4072; 24 h, K1-EJ + MP1): 1.5 µg/mL
- MIC of the component in combination (S. haemolyticus 4072; 48 h, K1-EJ + GarKS): 13 µg/mL
- MIC of the component in combination (S. haemolyticus 4072; 48 h, K1-EJ + GarKS + MP1): 5.8 µg/mL
- MIC of the component in combination (S. haemolyticus 4072; 48 h, K1-EJ + MP1): 1.6 µg/mL
- MIC (S. haemolyticus 4070; 4070, 5 h): 0.78 µg/mL
- MIC (S. haemolyticus 4070; 4070, 24 h): >100 µg/mL
- MIC (S. haemolyticus 4070; 4070, 48 h): >100 µg/mL
- MIC of the component in combination (S. haemolyticus 4070; 5 h, K1-EJ + GarKS): 0.72 µg/mL
- MIC of the component in combination (S. haemolyticus 4070; 5 h, K1-EJ + GarKS + MP1): 0.32 µg/mL
- MIC of the component in combination (S. haemolyticus 4070; 5 h, K1-EJ + MP1): 0.2 µg/mL
- MIC of the component in combination (S. haemolyticus 4070; 24 h, K1-EJ + GarKS): 3.3 µg/mL
- MIC of the component in combination (S. haemolyticus 4070; 24 h, K1-EJ + GarKS + MP1): 2.8 µg/mL
- MIC of the component in combination (S. haemolyticus 4070; 24 h, K1-EJ + MP1): 2.8 µg/mL
- MIC of the component in combination (S. haemolyticus 4070; 48 h, K1-EJ + GarKS): 6.3 µg/mL
- MIC of the component in combination (S. haemolyticus 4070; 48 h, K1-EJ + GarKS + MP1): 5.8 µg/mL
- MIC of the component in combination (S. haemolyticus 4070; 48 h, K1-EJ + MP1): 6 µg/mL
- MIC (S. haemolyticus 4069; 4069, 5 h): 0.78 µg/mL
- MIC (S. haemolyticus 4069; 4069, 24 h): 0.78 µg/mL
- MIC (S. haemolyticus 4069; 4069, 48 h): >100 µg/mL
- MIC of the component in combination (S. haemolyticus 4069; 5 h, K1-EJ + GarKS): 1.4 µg/mL
- MIC of the component in combination (S. haemolyticus 4069; 5 h, K1-EJ + GarKS + MP1): 0.68 µg/mL
- MIC of the component in combination (S. haemolyticus 4069; 5 h, K1-EJ + MP1): 1.5 µg/mL
- MIC of the component in combination (S. haemolyticus 4069; 24 h, K1-EJ + GarKS): 6 µg/mL
- MIC of the component in combination (S. haemolyticus 4069; 24 h, K1-EJ + GarKS + MP1): 3.3 µg/mL
- MIC of the component in combination (S. haemolyticus 4069; 24 h, K1-EJ + MP1): 23 µg/mL
- MIC of the component in combination (S. haemolyticus 4069; 48 h, K1-EJ + GarKS): 6.5 µg/mL
- MIC of the component in combination (S. haemolyticus 4069; 48 h, K1-EJ + GarKS + MP1): 5.8 µg/mL
- MIC of the component in combination (S. haemolyticus 4069; 48 h, K1-EJ + MP1): 48 µg/mL
- MIC (S. haemolyticus 4071; 4071, 5 h): 0.78 µg/mL
- MIC (S. haemolyticus 4071; 4071, 24 h): >100 µg/mL
- MIC (S. haemolyticus 4071; 4071, 48 h): >100 µg/mL
- MIC of the component in combination (S. haemolyticus 4071; 5 h, K1-EJ + GarKS): 1.6 µg/mL
- MIC of the component in combination (S. haemolyticus 4071; 5 h, K1-EJ + GarKS + MP1): 0.72 µg/mL
- MIC of the component in combination (S. haemolyticus 4071; 5 h, K1-EJ + MP1): 0.42 µg/mL
- MIC of the component in combination (S. haemolyticus 4071; 24 h, K1-EJ + GarKS): 12 µg/mL
- MIC of the component in combination (S. haemolyticus 4071; 24 h, K1-EJ + GarKS + MP1): 1.6 µg/mL
- MIC of the component in combination (S. haemolyticus 4071; 24 h, K1-EJ + MP1): 1.4 µg/mL
- MIC of the component in combination (S. haemolyticus 4071; 48 h, K1-EJ + GarKS): 24 µg/mL
- MIC of the component in combination (S. haemolyticus 4071; 48 h, K1-EJ + GarKS + MP1): 3.3 µg/mL
- MIC of the component in combination (S. haemolyticus 4071; 48 h, K1-EJ + MP1): 3 µg/mL
